Assay results: patent US6872841B2 (The University of North Carolina at Chapel Hill, priority 2002, dated 2005)
Like-named read-outs stand apart in the source and are kept apart here.

What was measured:
[1] = tested on: KB (nasopharyngeal carcinoma); assay: Cell growth inhibition (standard SRB assay), KB; assay type: cell-based, human; details: 3 days of continuous treatment, read-out: Cell growth inhibition ED50
[2] = tested on: KB-7d (MRP-pleotrophic multidrug-resistant KB sub-clone); assay: Cell growth inhibition (standard SRB assay), KB-7d; assay type: cell-based, human; details: 3 days of continuous treatment, read-out: Cell growth inhibition ED50
KB cells = assay: Clonogenic assay; assay type: cell-based, human; details: 5 μM for 30 minutes, colonies after 12 days
Procedure: (§1) Biological Assay and Results. […] Freshly trypsinized KB cells were exposed to drug at 5, 0.5, or 0.05 μM for 30 minutes, respectively. Then, 250 or 500 cells were immediately plated and left undisturbed for 12 days. Colonies were fixed with formalin and stained with toluidine blue.

DNA topoisomerase II = assay: In vitro topoisomerase II inhibition, plasmid relaxation/cleavage assay; assay type: biochemical; details: for Minimum concentration to detect linear DNA: DNA topoisomerase II inhibition; for Relative activity as topoisomerase II inhibitor versus standards: compared with GL-331 and etoposide
[3] = tested on: A549 (lung adenocarcinoma); assay: Cell growth inhibition (standard SRB assay), A549; assay type: cell-based, human; details: 3 days of continuous treatment, read-out: Cell growth inhibition ED50
[4] = tested on: MCF-7 (breast adenocarcinoma); assay: Cell growth inhibition (standard SRB assay), MCF-7; assay type: cell-based, human; details: 3 days of continuous treatment, read-out: Cell growth inhibition ED50
[5] = tested on: KB (nasopharyngeal carcinoma); assay: Cytotoxicity (cell killing after 30 minutes of treatment), KB; details: kills 50% of the cells after 30 minutes of treatment
Procedure: as §1

[6] = tested on: KB-7d (MRP-pleotrophic multidrug-resistant KB sub-clone); assay: Cytotoxicity (cell killing after 30 minutes of treatment), KB-7d; details: kills 50% of the cells after 30 minutes of treatment
Procedure: as §1

[7] = tested on: A549 (lung adenocarcinoma); assay: Cytotoxicity (cell killing after 30 minutes of treatment), A549; details: kills 50% of the cells after 30 minutes of treatment
[8] = tested on: MCF-7 (breast adenocarcinoma); assay: Cytotoxicity (cell killing after 30 minutes of treatment), MCF-7; details: kills 50% of the cells after 30 minutes of treatment

Row | Compound | EC50 [1] | EC50 [2] | % Inhibition (KB cells) | Minimum concentration to detect linear DNA (DNA topoisomerase II) | Relative activity as topoisomerase II inhibitor versus standards (DNA topoisomerase II) | EC50 ([3]; Homo sapiens, 72 h) | EC50 ([4]; Homo sapiens, MCF7, 72 h) | EC50 ([1]; Homo sapiens, 72 h) | EC50 ([2]; Homo sapiens, KB7D, 72 h) | Cytotoxicity LD50 [5] | Cytotoxicity LD50 [6] | Cytotoxicity LD50 [7] | Cytotoxicity LD50 [8] | EC50 [3] | EC50 [4]
1 | 4′-O-demethyl-4β-[4″-(methyl L-tryptophan-N-carbonyl)-anilino]-4-desoxypodophyllotoxin [Compound 13] | 750 nM | < 100 nM | 82% | 5 µM | at least as active as GL-331 and four-fold more active than etoposide | – | – | – | – | – | – | – | – | – | –
2 | COc1cc([C@@H]2c3cc4c(cc3[C@@H](O[C@@H]3O[C@@H]5CO[C@@H](C)O[C@H]5[C@H](O)[C@H]3O)[C@H]3COC(=O)[C@H]23)OCO4)cc(OC)c1O [Etoposide] | – | – | – | 20 µM | – | 5200 nM | > 20000 nM | 750 nM | > 10000 nM | 49.0 µM | >50 µM | >50 µM | 21 µM | – | –
3 | COC(=O)[C@H](Cc1ccc(O)cc1)NC(=O)c1ccc(NC2c3cc4c(cc3C(c3cc(OC)c(O)c(OC)c3)C3C(=O)OCC23)OCO4)cc1 (stereo partly drawn) [Compound 12, 4′-O-demethyl-4β-[4″-(methyl L-tyrosine-N-carbonyl)-anilino]-4-desoxy-podophyllotoxin] | 1900 nM | 5000 nM | 99.5% | 5 µM | at least as active as GL-331 and four-fold more active than etoposide | – | – | – | – | 1.7 µM | <20 µM | 12.5 µM | <3.1 µM | 2400 nM | 4500 nM
4 | 4′-O-demethyl-4β-{4″-[4′″-(benzimidazol-2″″-yl)-amido]-anilino}-4-desoxypodophyllotoxin [Compound 14] | > 25000 nM | – | – | – | – | – | – | – | – | – | – | – | – | – | –
5 | COc1cc(C2c3cc4c(cc3C(NC(=O)[C@H](Cc3ccc(O)cc3)NC(=O)OCc3ccccc3)C3COC(=O)C23)OCO4)cc(OC)c1O (stereo partly drawn) [Compound 10, 4′-O-demethyl-4β-[(N—CBZ-L-tyrosine-carbonyl)-amino]-4-desoxy-podophyllotoxin] | 2300 nM | 6700 nM | – | – | – | – | – | – | – | – | – | – | – | > 20000 nM | –
6 | COc1cc([C@@H]2c3cc4c(cc3[C@@H](Nc3ccc([N+](=O)[O-])cc3)[C@H]3COC(=O)[C@H]23)OCO4)cc(OC)c1O [GL-331, reference compound] | 300 nM | 1900 nM | 46% | 5 µM | – | – | – | – | – | 9.9 µM | <50 µM | 6.6 µM | 5.3 µM | 700 nM | 12000 nM
